Source: patent publication US9249114B2, “Thiazole derivatives” (Merck Patent GmbH, priority 2011, dated 2016)

Key:
phospho-IRF3 Ser 386 = assay: Cell test: dose response inhibition of phospho-IRF3 Ser 386 in MDA-MB-468 cells; type: cell-based; settings: Homo sapiens, Poly(I:C) stimulation, read-out: IC50 of reference inhibitor in phospho-IRF3 cell assay
From the text: Cell Test Dose Response Inhibition of Phospho-IRF3 […] cell/MDAMB468/INH/PHOS/IMAG/pIRF3 1. Scope Although TBK1 and IKKε are best known as key players in the innate immune response, recent findings have pointed towards a role for TBK1 and IKKi in Ras-induced oncogenic transformation. TBK1 was identified as a RalB effector in the Ras-like (Ral)-guanine nucleotide exchange factor (GEF) pathway that is required for Ras-induced transformation. TBK1 directly activates IRF3 which, upon phosphorylation, homodimerizes and translocates to the nucleus where it activates processes involved with inflammation, immune regulation, cell survival and proliferation. This assay has been devised in order to assess the efficacy/potency of TBK1/IKKε inhibitor compounds based on the immunocytochemical detection of nuclear localised phospho-IRF3, a target directly downstream of TBK1. […] 2. Assay Overview Day 1: MDA-MB-468 cells are detached with HyQ-Tase, counted, and seeded into a 384-well clear bottom TC-surface plate at density of 10,000 cells per well in a total volume of 35 ul complete medium. Alternatively cells are directly seeded from frozen vials. […] Day 3: The primary antibody is washed off, an AlexaFluor488-conjugated secondary is added, cells are counterstained with propidium iodide followed by image acquisition on IMX Ultra high content reader. […]

IKKε = IKKε (Homo sapiens (Human), UniProt Q14164); assay: IKKε kinase assay (384-well Flashplate); type: biochemical; settings: 10 μM ATP, 2 hours at 30° C.; read-out: IKKε enzyme assay IC50
IKKε, sequence (Q14164 whole entry): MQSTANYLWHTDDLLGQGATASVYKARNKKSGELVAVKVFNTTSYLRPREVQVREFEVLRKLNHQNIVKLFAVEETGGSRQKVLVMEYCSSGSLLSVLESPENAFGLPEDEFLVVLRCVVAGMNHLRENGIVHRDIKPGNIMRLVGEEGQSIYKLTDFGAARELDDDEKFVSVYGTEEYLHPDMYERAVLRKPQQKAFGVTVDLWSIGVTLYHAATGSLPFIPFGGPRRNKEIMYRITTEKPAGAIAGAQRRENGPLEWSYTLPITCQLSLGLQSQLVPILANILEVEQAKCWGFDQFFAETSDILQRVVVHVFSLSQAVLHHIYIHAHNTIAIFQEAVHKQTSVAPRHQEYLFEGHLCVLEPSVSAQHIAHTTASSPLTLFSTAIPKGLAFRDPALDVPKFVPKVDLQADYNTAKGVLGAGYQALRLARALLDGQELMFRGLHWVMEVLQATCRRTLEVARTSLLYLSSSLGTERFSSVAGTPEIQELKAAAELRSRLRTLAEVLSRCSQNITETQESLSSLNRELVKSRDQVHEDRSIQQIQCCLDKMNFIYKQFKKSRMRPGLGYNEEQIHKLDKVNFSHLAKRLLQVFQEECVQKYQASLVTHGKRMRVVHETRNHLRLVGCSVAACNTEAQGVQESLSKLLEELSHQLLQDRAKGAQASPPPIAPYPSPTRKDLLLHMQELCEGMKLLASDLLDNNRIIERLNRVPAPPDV
Experimental: Test for the Inhibition of IKKε
IKKε—Kinase Assay (IKKepsilon)
The kinase assay is performed either as 384-well Flashplate assay (for e.g. Topcount measurement). […] The reaction is stopped with 25 μl 200 mM EDTA. After 30 Min at room temperature the liquid is removed and each well washed thrice with 100 μl 0.9% sodium chloride solution. […] Radioactivity is measured with Topcount (PerkinElmer). Results (e.g. IC50-values) are calculated with program tools provided by the IT-department (e.g. AssayExplorer, Symyx).

[1] = target: TANK binding kinase (TBK1) (Homo sapiens (Human), UniProt Q9UHD2); assay: TBK1 enzyme assay (384-well Flashplate kinase assay); type: biochemical; settings: 10 μM ATP, 120 Min at 30° C.
TANK binding kinase (TBK1), sequence (Q9UHD2 whole entry): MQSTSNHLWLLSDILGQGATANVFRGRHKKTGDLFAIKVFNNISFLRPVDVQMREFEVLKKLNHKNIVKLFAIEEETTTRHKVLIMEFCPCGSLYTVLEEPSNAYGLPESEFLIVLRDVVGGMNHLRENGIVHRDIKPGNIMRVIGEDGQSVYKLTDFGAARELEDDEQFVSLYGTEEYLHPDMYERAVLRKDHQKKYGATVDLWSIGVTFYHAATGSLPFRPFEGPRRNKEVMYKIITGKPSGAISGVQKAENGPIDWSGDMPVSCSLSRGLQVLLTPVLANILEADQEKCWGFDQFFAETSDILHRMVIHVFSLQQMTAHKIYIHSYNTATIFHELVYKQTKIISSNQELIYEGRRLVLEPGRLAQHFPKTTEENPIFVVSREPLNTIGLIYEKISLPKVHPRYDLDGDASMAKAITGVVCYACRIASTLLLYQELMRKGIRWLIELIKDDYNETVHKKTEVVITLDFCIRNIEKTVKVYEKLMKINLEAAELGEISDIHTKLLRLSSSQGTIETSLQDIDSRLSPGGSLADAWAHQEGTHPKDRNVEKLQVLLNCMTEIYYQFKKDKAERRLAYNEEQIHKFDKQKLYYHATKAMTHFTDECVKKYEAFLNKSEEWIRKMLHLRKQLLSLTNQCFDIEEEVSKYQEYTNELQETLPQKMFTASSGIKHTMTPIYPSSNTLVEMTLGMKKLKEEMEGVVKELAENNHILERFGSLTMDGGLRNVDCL
Experimental: Test for the Inhibition of TBK1
The kinase assay is performed as 384-well Flashplate assay (for e.g. Topcount measurement. 0.6 nM TANK binding kinase (TBK1), 800 nM biotinylated MELK-derived peptide (Biotin-Ah-Ah-[…]) SEQ ID NO: 2 and 10 μM ATP (spiked with 0.25 μCi ^33P-ATP/well) are incubated in a total volume of 50 μl (10 mM MOPS, 10 mM Mg-acetat, 0.1 mM EGTA, 1 mM DTT, 0.02% Brij35, 0.1% BSA, pH 7.5) with or without test compound for 120 Min at 30° C. The reaction is stopped with 25 μl 200 mM EDTA. After 30 Min at room temperature the liquid is removed and each well washed thrice with 100 μl 0.9% sodium chloride solution. Nonspecific reaction is determined in presence of 100 nM Staurosporine. Radioactivity is measured in a Topcount (PerkinElmer). Results (e.g. IC50-values) are calculated with program tools provided by the IT-department (e.g. AssayExplorer, Symyx).

Row | SMILES | IC50 (phospho-IRF3 Ser 386) | IC50 (IKKε) | IC50 [1]
1 | O=C(NCCCNc1nc(Nc2cccc(NC(=O)N3CCCC3)c2)ncc1I)c1cccs1 [BX-795] | 200 to 800 nM |  | 
2 | Cc1ccc(C(=O)Nc2sc(-c3ccncc3)nc2C(N)=O)cc1 [Compound A55, 5-(4-methyl-benzoylamino)-2-pyridin-4-yl-thiazole-4-carboxylic acid amide] |  | 5300 nM | 10000 nM
3 | CN(C)c1ccc(C(=O)Nc2sc(-c3ccncc3)nc2C(N)=O)cc1 [Compound A57, 5-{[4-(dimethylamino)benzoyl]amino}-2-pyridin-4-yl-1,3-thiazole-4-carboxamide] |  | 1600 nM | 1800 nM
4 | NC(=O)c1nc(-c2ccncc2)sc1NC(=O)c1ccc(N)cc1 [Compound A58, 5-[(4-aminobenzoyl)amino]-2-pyridin-4-yl-1,3-thiazole-4-carboxamide] |  | 180 nM | 110 nM
5 | Cn1cccc1C(=O)Nc1sc(-c2ccncc2)nc1C(N)=O [Compound A59, 5-{[(1-methyl-1H-pyrrol-2-yl)carbonyl]amino}-2-pyridin-4-yl-1,3-thiazole-4-carboxamide] |  | 1200 nM | 400 nM

Further lines, results first:

Row | IC50 (phospho-IRF3 Ser 386) | IC50 (IKKε) | IC50 [1] | SMILES
6 |  | 6300 nM | 3700 nM | NC(=O)c1nc(-c2ccncc2)sc1NC(=O)c1ccco1 [Compound A60, 5-(2-furoylamino)-2-pyridin-4-yl-1,3-thiazole-4-carboxamide]
7 |  | 140 nM | 120 nM | NC(=O)c1nc(-c2ccncc2)sc1NC(=O)c1ccc[nH]1 [Compound A61, 2-pyridin-4-yl-5-[(1H-pyrrol-2-ylcarbonyl)amino]-1,3-thiazole-4-carboxamide]
8 |  | 7300 nM | 2700 nM | NC(=O)c1nc(-c2ccncc2)sc1NC(=O)c1cc[nH]n1 [Compound A63, 5-[(1H-pyrazol-3-ylcarbonyl)amino]-2-pyridin-4-yl-1,3-thiazole-4-carboxamide]
9 |  | 480 nM | 200 nM | NC(=O)c1nc(-c2ccncc2)sc1NC(=O)c1ccsc1 [Compound A65, 2-pyridin-4-yl-5-[(3-thienylcarbonyl)amino]-1,3-thiazole-4-carboxamide]
